Reference: PubChem BioAssay AID2060889 (Molecular Pharmacology Branch, DTP, NCI, 2025)

System: LG0567-F671-PDC complex spheroids viability
Assay: Anticancer human tumor LG0567-F671-PDC patient-derived lung adenocarcinoma cell line growth inhibition [RAS]
Settings: for viability, T/C: stronger effect = lower value; active = viability on the fitted dose curve at most 10% of control; inactive = the rest
Source text: RAS pathway inhibitors in Combinations in Complex Spheroids
A high-throughput screen of multi-cell type tumor spheroids was designed to identify active combinations of RAS pathway inhibitors and targeted small molecules. Complex spheroids include a stromal component modeled by human endothelial cells (HUVEC) and fibroblasts modeled by human mesenchymal stem cells (MSCs). The concentration ranges selected for each drug and investigational agent were based upon clinically achievable concentrations if the clinical Cmax of the agent was known.
Compounds. The drugs and investigational agents: abemaciclib (NSC768073), cobimetinib (NSC768068), divarasib (GDC6063, NSC841802), docetaxel (NSC628503), GDC-1971 (RLY-1971, NSC841576), gemcitabine (NSC613327), inavolisib (NSC800729), ipatasertib (NSC767898), KB-0742 (NSC834161), MRTX-1133 (NSC836407), osimertinib (NSC779217), RMC-4630 (NSC839698), RMC-6236 (NSC851965), RMC-6291 (NSC852671), Ro-3306 (NSC812927), sapanisertib (NSC764658), SN-38 (NSC673596), staurosporine (NSC755774), SY5609 (NSC837396), and tovorafenib (DAY101, NSC766906), were obtained from the National Cancer Institute (NCI) Developmental Therapeutics Program Chemical Repository. The FDA-approved anticancer drug set is available from the NCI Developmental Therapeutics Program. […] The stock solutions were prepared in dimethyl sulfoxide (DMSO, Sigma-Aldrich, St. Louis, MO, cat. D2650) at 800-fold the tested concentration and stored at -70 degrees C prior to their use. All drugs and investigational agents were tested over a range starting from a high concentration at or near the clinical Cmax and decreasing in half-log increments. If the clinical Cmax for an agent had not been determined, the highest concentration tested was 10 microM.
Cell Culture. All cells were maintained in an incubator at 37 degrees C and 5% CO2 with 95% humidity. The PDC lines were cultured according to standard operating procedures established by the NCI PDMR. All PDCs were thawed and cultured in Matrigel-coated flasks prepared with a working solution of 1X Ham's F-12 nutrient mix, without supplementation (Invitrogen, Waltham, MA, cat. 11765054), 100 U/mL penicillin-streptomycin (Invitrogen, cat. 15140122), and 2.5% Matrigel (Corning Inc., Corning, NY, cat. 354248) for the first three passages. The 362531-283-R-J2-PDC and 782815-120-R-J1-PDC lines were cultured in 6C/Colon 1B media, which includes advanced DMEM/F-12 (Thermo Fisher Scientific, cat. 12634028), 10 mM HEPES (Thermo Fisher Scientific, cat. 15630080), 1X GlutaMAX supplement (Thermo Fisher Scientific, cat. 35050061), 0.1 mg/mL primocin (InvivoGen, San Diego, CA, cat. ant-pm-2), 10% defined fetal bovine serum, heat inactivated (HyClone Laboratories Inc., Logan, UT, cat. SH30070.03HI), 50% L-WRN conditioned media (ATCC, cat. CRL-3276), 1.25 mM N-Acetyl-L-cysteine (Sigma-Aldrich, cat. A9165), 10 mM nicotinamide (Sigma-Aldrich, cat. N0636), 1X B-27 supplement (Thermo Fisher Scientific, cat. 17504044), 1X N-2 supplement (Thermo Fisher Scientific, cat. 17502048), 50 ng/mL human EGF (Thermo Fisher Scientific, cat. PHG0311), and 10 microM Y-27632 dihydrochloride (Tocris Bioscience, cat. 1254). The K12877-001-R-J1-PDC line was cultured in 6I media, which includes all 6C/Colon 1B media plus 10 ng/mL human FGF-10 (PeproTech, cat. 100-26), 1 ng/mL human FGF-2 (PeproTech, cat. 100-18B), 1 µM prostaglandin E2 (Tocris Bioscience, cat. 2296), […] hydrocortisone (Sigma-Aldrich, cat. H4001), and […] bovine insulin (Sigma-Aldrich, cat. I6634). The K86415-001-R-J1-PDC line was cultured in 6D media, which includes all 6C/Colon 1B media components minus the L-WRN conditioned media. The 485176-168-R4-J1-PDC was cultured in PANC media, which includes all 6C/Colon 1B media plus 100 ng/mL human FGF-10 (PeproTech, cat. 100-26), 500 nM SB-431542 (Selleckchem, cat. S1067), and 10 nM gastrin (Tocris Bioscience, cat. 3006). […]
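Note: spheroids exposed to compound for seven days before readout.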
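Throughout, for IC50: luminescence signal used as a proxy for viable cells.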

CC(=O)OC12COC1CC(O)C1(C)C(=O)C(O)C3=C(C)C(OC(=O)C(O)C(NC(=O)OC(C)(C)C)c4ccccc4)CC(O)(C(OC(=O)c4ccccc4)C21)C3(C)C (stereo not drawn)
< 31.6 nM: IC50 (curve of compound)
inactive: viability, T/C (compound 0.0316 µM) 51.5% [middle of 4 runs] | viability, T/C (compound 0.1 µM) 44.6% [middle of 4 runs] | viability, T/C (compound 0.316 µM) 58.4% [middle of 4 runs] | viability, T/C (compound 1 µM) 62.5% [middle of 4 runs] | viability, T/C (compound 3.16 µM) 70.3% [middle of 4 runs] | viability, T/C (compound 10 µM) 63.5% [middle of 4 runs]

Cc1nc(N2CCC3(CC2)COC(C)C3N)c(CO)nc1Sc1ccnc(N)c1Cl (stereo not drawn)
93.7 nM [middle of 4 runs]: IC50 (curve of compound)
inactive: viability, T/C (compound 0.0316 µM) 72.2% [middle of 4 runs] | viability, T/C (compound 0.1 µM) 48.2% [middle of 4 runs] | viability, T/C (compound 0.316 µM) 36.3% [middle of 4 runs] | viability, T/C (compound 1 µM) 28.1% [middle of 4 runs] | viability, T/C (compound 3.16 µM) 21.7% [middle of 4 runs] | viability, T/C (compound 10 µM) 19.9% [middle of 4 runs]

NC1c2ccccc2OC12CCN(c1cnc3c(N4CCCc5ncccc54)n[nH]c3n1)CC2 (stereo not drawn)
inactive: viability, T/C (compound 0.0316 µM) 37.3% [middle of 4 runs] | viability, T/C (compound 0.1 µM) 26.9% [middle of 4 runs] | viability, T/C (compound 0.316 µM) 23.4% [middle of 4 runs] | viability, T/C (compound 1 µM) 23% [middle of 4 runs] | viability, T/C (compound 3.16 µM) 21.2% [middle of 4 runs] | viability, T/C (compound 10 µM) 20.4% [middle of 4 runs]
< 31.6 nM: IC50 (curve of compound)

C=CC(=O)Nc1cc(Nc2nccc(-c3cn(C)c4ccccc34)n2)c(OC)cc1N(C)CCN(C)C + C#Cc1c(F)ccc2cc(O)cc(-c3ncc4c(N5CC6CCC(C5)N6)nc(OCC56CCCN5CC(F)C6)nc4c3F)c12
active: viability, T/C (second compound 1 µM, first compound 1 µM) 6.5% | viability, T/C (second compound 3.16 µM, first compound 0.316 µM) 8.15% | viability, T/C (second compound 3.16 µM, first compound 1 µM) 4.09% | viability, T/C (second compound 10 µM, first compound 0.0316 µM) 9.25% | viability, T/C (second compound 10 µM, first compound 0.1 µM) 6.54% | viability, T/C (second compound 10 µM, first compound 0.316 µM) 4.27% | viability, T/C (second compound 10 µM, first compound 1 µM) 2.83%
< 3.16 nM: IC50 (curve of first compound, second compound 1 µM) | IC50 (curve of first compound, second compound 3.16 µM) | IC50 (curve of first compound, second compound 10 µM)
120 nM: IC50 (curve of first compound, second compound 0.0316 µM)
8.15 nM: IC50 (curve of first compound, second compound 0.316 µM)
84.3 nM: IC50 (curve of first compound, second compound 0.1 µM)
inactive: viability, T/C (second compound 0.0316 µM, first compound 0.00316 µM) 88.7% | viability, T/C (second compound 0.0316 µM, first compound 0.01 µM) 80.7% | viability, T/C (second compound 0.0316 µM, first compound 0.0316 µM) 67.4% | viability, T/C (second compound 0.0316 µM, first compound 0.1 µM) 54.1% | viability, T/C (second compound 0.0316 µM, first compound 0.316 µM) 34.5% | viability, T/C (second compound 0.0316 µM, first compound 1 µM) 19.1% | viability, T/C (second compound 0.1 µM, first compound 0.00316 µM) 79.8% | viability, T/C (second compound 0.1 µM, first compound 0.01 µM) 74.8% | viability, T/C (second compound 0.1 µM, first compound 0.0316 µM) 66.8% | viability, T/C (second compound 0.1 µM, first compound 0.1 µM) 47.1% | viability, T/C (second compound 0.1 µM, first compound 0.316 µM) 27% | viability, T/C (second compound 0.1 µM, first compound 1 µM) 16.2% | viability, T/C (second compound 0.316 µM, first compound 0.00316 µM) 53.4% | viability, T/C (second compound 0.316 µM, first compound 0.01 µM) 49.3% | viability, T/C (second compound 0.316 µM, first compound 0.0316 µM) 42.8% | viability, T/C (second compound 0.316 µM, first compound 0.1 µM) 28.4% | viability, T/C (second compound 0.316 µM, first compound 0.316 µM) 22.1% | viability, T/C (second compound 0.316 µM, first compound 1 µM) 11.3% | viability, T/C (second compound 1 µM, first compound 0.00316 µM) 38.1% | viability, T/C (second compound 1 µM, first compound 0.01 µM) 32.8% | viability, T/C (second compound 1 µM, first compound 0.0316 µM) 28.9% | viability, T/C (second compound 1 µM, first compound 0.1 µM) 20.4% | viability, T/C (second compound 1 µM, first compound 0.316 µM) 11.9% | viability, T/C (second compound 3.16 µM, first compound 0.00316 µM) 20.5% | viability, T/C (second compound 3.16 µM, first compound 0.01 µM) 17% | viability, T/C (second compound 3.16 µM, first compound 0.0316 µM) 16.2% | viability, T/C (second compound 3.16 µM, first compound 0.1 µM) 12.2% | viability, T/C (second compound 10 µM, first compound 0.00316 µM) 13.5% | viability, T/C (second compound 10 µM, first compound 0.01 µM) 10.9%
